These results are taken from US4760077A, “Pyrrothine derivatives and pharmaceutical use thereof” (Boehringer Mannheim GmbH, priority 1984, dated 1988).

In series [1] the test system is allergen-induced degranulation of peripheral leukocytes. Kind of series: Inhibition of the allergen-induced degranulation reaction of peripheral leukocytes (method of Siraganian and Hook). The series is classed as cell-based. As to conditions: Homo sapiens, Leukocyte. The protocol:
For the detection of the anti-allergic action, there was measured the inhibition of the allergen-induced degranulation reaction of peripheral leukocytes; one operated according to the method of R. P. Siraganian and W. A. Hook (Manual of Clinical Immunology, 2nd edition 1980, pub. N. R. Rose and H. Friedman, Am. Soc. for Microbiology, pages 808 to 821).

In series [2] the test system is gram-positive and gram-negative bacteria, pathogenic fungi and protozoa. As to conditions: Celmer and Solomons, J. Am. Chem. Soc. 77 (1955) 2861; cited from earlier work.
Series [3] concerns mouse. As to conditions: p.o., Table I, for the toxicity cf. literature named; cited from earlier work.
Series [4] concerns mouse. Put plainly: Toxicity LD50 p.o., mouse. Format: in vivo. The conditions noted are these: thiolutin vs theophylline.
The mark [5] stands for this setting: Table I, 50% inhibition in vitro, read-out: ID50 (the source's name).

What is called LD50 is the dose expected to kill half of the subjects tested.

Counter-ions that a name gives are not always drawn. Like-named read-outs stand apart in the source and are kept apart here.

Regarding `Cn1c(=O)c2[nH]cnc2n(C)c1=O` [theophylline, reference compound], the IC50 in series [1] (setting [5]) was determined as 5000 µM. Consider `CCC(=O)Nc1c2sscc-2n(C)c1=O` [aureothricin], for which, in series [1] (read-out: ID50 (the source's name)), the IC50 is 0.9 µM. Further, in series [2], the “antibiotic action, in words” value is “action against gram-positive and gram-negative bacteria, pathogenic fungi and protozoa”. As to `CC(=O)NC1=C(S)C(=CS)N(C)C1=O` [Example 3, 3-Acetamido-4-mercapto-5-mercaptomethylene-1-methylpyrrolin-2-one disodium salt], the IC50 in series [1] (setting [5]) was 2.5 µM. The same measure, in the same setting: the value for `CN(C)c1c2sscc-2n(C)c1=O` [Example 4, N,N-Dimethylpyrrothine] was 4.6 µM. In the case of `CN(C)C1=C(S)C(=CS)N(C)C1=O` [Example 5, 3-Dimethylamino-4-mercapto-5-mercaptomethylene-1-methylpyrrolin-2-one disodium salt], the IC50 in series [1] (Examples 3 to 5, no unit printed at the value, read-out: ID50 (the source's name)) was 50 µM; in series [1] (setting [5]), 5 µM. Consider `CC(=O)Nc1c2sscc-2n(C)c1=O` [thiolutin], for which the IC50 in series [1] (read-out: ID50) came out at 0.4 µM. Further, in the series on mouse [3], the LD50 was 25 mg/kg. Further, in the series with mouse [4], the “factor of therapeutic index against comparison compound theophylline” value is “more than 10^4”. Further, in series [2], the “antibiotic action, in words” value is “action against gram-positive and gram-negative bacteria, pathogenic fungi and protozoa”. Take `CC(C)C(=O)Nc1c2sscc-2n(C)c1=O` [isobutyrylpyrrothine]: in series [1] (setting [5]), the IC50 stood at 1.7 µM. The same measure, in the same setting: the result for `Cn1c2cssc-2c(N)c1=O` [pyrrothine, 4-methyl-6-amino-1,2-dithiolo[4,3-b]pyrrol-5(4H)-one] reads 0.9 µM.
